Biological target: PDZ-mNG (Homo sapiens, UniProt Q96RT1)
Assay: Binding kinetics of PDZ-mNG to peptDTWV in fixed COS7 cells
Format: cell-based
Settings: PFA or PFA/GA fixation, compared with kinetics at nanoparticles; result in words

RGSIDTWV-cooh [peptDTWV]
effect of fixation on peptDTWV/PDZ-mNG interaction: not affected by fixation

— PMC8631740 (Nano Letters, 2021)
